Columns and labels:
[1] = system: Plasmodium falciparum; experiment: Antimalarial activity against Plasmodium falciparum K1 infected in human erythrocytes after 72 hrs by lactate dehydrogenase assay; type: functional, organism-based; conditions: K1, 72 h
[2] = Selectivity index, ratio of CC50 for human MRC5 cells to IC50 for Plasmodium falciparum K1; type: toxicity; conditions: read-out: Ratio CC50/IC50
[3] = Cytotoxicity against human MRC5 cells assessed as decrease in cell viability after 7 days by MTT assay; type: cell-based
[4] = system: RAW264.7; experiment: Antiinflammatory activity in mouse RAW264.7 cells assessed as inhibition of LPS-induced nitric oxide production preincubated for 3 hrs followed by LPS challenge measured after 20 hrs by Griess assay; type: functional, cell-based
[5] = system: HL-60; experiment: Cytotoxicity against human HL60 cells after 48 hrs by CCK8 assay; type: functional, cell-based; conditions: HL-60, 48 h
[6] = system: HeLa; experiment: Cytotoxicity against human HeLa cells after 48 hrs by CCK8 assay; type: functional, cell-based

| Compound | IC50 [1] | also measured |
| --- | --- | --- |
| C[C@@H]1CC[C@H]2[C@@H](C)C(=O)O[C@@H]3O[C@@]4(C)CC[C@@H]1[C@]32OO4 [ARTEMISININ] | 0.025 µM |  |
| COC(=O)[C@@H]1c2ccoc2C[C@H]2[C@H]1[C@@H](O)[C@H](O)[C@H]1C(C)(C)CCC[C@]21C | 22.9 µM | selectivity ratio [2]: > 12; CC50 at 168 h [3]: > 276 µM |
| CC(=O)O[C@H]1[C@H](O)[C@@H]2[C@H](Cc3occc3[C@@]2(C)O)[C@@]2(C)CCCC(C)(C)[C@H]12 | 32.2 µM | IC50 [4]: 30.6 µM; selectivity ratio [2]: 4.3; CC50 at 168 h [3]: 139 µM |
| COC(=O)[C@@H]1c2ccoc2C[C@H]2[C@H]1[C@@H](O)[C@H](O)[C@H]1[C@](C)(CO)CCC[C@]21C |  | IC50 [5]: 9.8 µM |
| CC(=O)OC[C@@H]1c2ccoc2C[C@H]2[C@H]1C[C@H](OC(C)=O)[C@H]1C(C)(C)CCC[C@]21C | 23.5 µM | IC50 [5]: 32.6 µM; IC50 [6]: 32.2 µM; selectivity ratio [2]: 1.9; CC50 at 168 h [3]: 44.1 µM |

Second part, led by results:

| IC50 [1] | Compound | also measured |
| --- | --- | --- |
| > 30 µM | COC(=O)[C@@H]1c2ccoc2C[C@H]2[C@H]1[C@@H](OC(C)=O)[C@@H]1OC(=O)[C@]3(C)CCC[C@@]2(C)[C@@H]13 |  |
| > 30.9 µM | COC(=O)[C@@H]1c2ccoc2C[C@H]2[C@H]1[C@@H](O)[C@H](OC(C)=O)[C@H]1C(C)(C)CCC[C@]21C |  |
| > 30.9 µM | COC(=O)[C@@H]1c2ccoc2C[C@H]2[C@H]1[C@@H](OC(C)=O)[C@H](O)[C@H]1C(C)(C)CCC[C@]21C |  |
| > 28.8 µM | CC(=O)OC[C@@]1(C)CCC[C@]2(C)[C@H]3Cc4occc4[C@@](C)(O)[C@@H]3[C@@H](O)[C@H](OC(C)=O)[C@@H]12 |  |
| > 27.9 µM | COC(=O)[C@@H]1c2ccoc2C[C@H]2[C@H]1[C@@H](OC(C)=O)[C@H](O)[C@@H]1[C@]2(C)CCC[C@@]1(C)C(=O)OC |  |
| > 27 µM | COC(=O)[C@@H]1c2ccoc2C[C@H]2[C@H]1[C@@H](OC(C)=O)[C@H](O)[C@H]1[C@](C)(COC(C)=O)CCC[C@]21C |  |

— ChEMBL document CHEMBL4130575, “Sucupiranins A-L, Furanocassane Diterpenoids from the Seeds of Bowdichia virgilioides” (J Nat Prod, 2017)
